Experiments:
FLT3 kinase = target: T1, FLT3 kinase (Homo sapiens, UniProt P36888); assay: Biochemical enzyme inhibition assay (microfluidics, Caliper EZ Reader II), FLT3
T1 construct: purchased Invitrogen
T1 sequence (P36888 27-993): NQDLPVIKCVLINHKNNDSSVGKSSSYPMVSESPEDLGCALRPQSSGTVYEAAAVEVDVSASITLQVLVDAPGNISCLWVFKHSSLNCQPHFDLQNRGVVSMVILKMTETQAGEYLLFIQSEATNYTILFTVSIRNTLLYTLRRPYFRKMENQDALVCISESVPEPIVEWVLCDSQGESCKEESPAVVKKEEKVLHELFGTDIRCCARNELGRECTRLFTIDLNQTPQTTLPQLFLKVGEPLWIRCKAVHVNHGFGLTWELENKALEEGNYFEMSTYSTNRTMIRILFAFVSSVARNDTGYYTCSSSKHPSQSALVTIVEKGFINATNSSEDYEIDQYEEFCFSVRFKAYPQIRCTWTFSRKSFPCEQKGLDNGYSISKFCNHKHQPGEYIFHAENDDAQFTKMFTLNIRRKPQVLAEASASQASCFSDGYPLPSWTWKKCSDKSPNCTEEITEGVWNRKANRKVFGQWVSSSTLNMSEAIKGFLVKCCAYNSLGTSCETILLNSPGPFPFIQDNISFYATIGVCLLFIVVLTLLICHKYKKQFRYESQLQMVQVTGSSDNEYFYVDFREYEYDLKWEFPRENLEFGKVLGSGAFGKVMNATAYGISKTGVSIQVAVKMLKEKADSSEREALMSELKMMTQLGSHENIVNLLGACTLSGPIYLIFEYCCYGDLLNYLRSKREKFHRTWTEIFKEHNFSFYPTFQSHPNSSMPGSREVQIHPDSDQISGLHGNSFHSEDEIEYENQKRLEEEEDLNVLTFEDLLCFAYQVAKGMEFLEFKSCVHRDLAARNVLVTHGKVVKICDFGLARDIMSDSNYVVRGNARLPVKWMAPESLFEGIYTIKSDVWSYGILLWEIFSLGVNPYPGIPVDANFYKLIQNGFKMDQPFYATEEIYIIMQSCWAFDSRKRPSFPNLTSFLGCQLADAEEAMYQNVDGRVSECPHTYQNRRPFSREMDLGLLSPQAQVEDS
Procedure: Kinase activity was measured in a microfluidics assay that monitors the separation of a phosphorylated product from substrate[31],[32]. […] After, 1 μL was transferred into a 384-well polypropylene assay plate (Greiner, Frickenhausen, Germany). The FLT3 enzyme (Invitrogen™, Grand Island, USA) was diluted in kinase buffer to a concentration of 2 nM and 5 µL of the enzyme mixture was transferred to the assay plate. The inhibitors/FLT3 enzyme were incubated for 60 minutes with minor shaking. […] For positive control, no inhibitor was added. For negative control, no enzyme was added. For running control, quizartinib was utilized. The plate was run until 10–20% conversion based on the positive control wells. The following separation conditions were utilized: upstream voltage −500V; downstream voltage, −1900V; chip pressure −0.8. Percent inhibition was measured for each well comparing starting peptide to phosphorylated product peaks relative to the baseline. Dose response curves, spanning the IC50 dose, were generated in GraphPad Prisim 6 and fit to an exponential one-phase decay line and IC50 values were obtained from the half-life value of the curve. IC50 values were generated in duplicate and error was calculated from the standard deviation between values.
S10. Biochemical Inhibition Assay:1,2 Kinase activity was measured in a microfluidics assay that monitors the separation of a phosphorylated product from substrate. The assay was run using a 12-sipper chip on a Caliper EZ Reader II (PerkinElmer®, Walthman, USA) with separation […]
Walthman, USA]). In 96-well polypropylene plates (Greiner, Frickenhausen, Germany) […]
After, 1 μL was transferred into a 384-well polypropylene assay plate (Greiner, Frickenhausen, Germany). The FLT3 enzyme (Invitrogen™, Grand Island, USA) was diluted in kinase buffer to a concentration of 2 nM and 5 µL of the enzyme mixture was transferred to the assay plate. The inhibitors/FLT3 enzyme were incubated for 60 minutes with minor shaking. A substrate mix was prepared containing ATP (Ambresco®, Solon, USA) and […]
USA) dissolved in kinase buffer, and 5 µL of the substrate mix was added to the assay plate.
For positive control, no inhibitor was added. For negative control, no enzyme was added. For running control, quizartinib was utilized. The plate was run until 10-20% conversion based on the positive control wells. The following separation conditions were utilized: upstream voltage -500V; downstream voltage, -1900V; chip pressure - 0.8. Percent inhibition was measured for each well comparing starting peptide to phosphorylated product peaks relative to the baseline. Dose response curves, spanning the IC50 dose, were generated in GraphPad Prisim 6 and fit to an exponential one-phase decay line and IC50 values were obtained from the half-life value of the curve. IC50 values were generated in duplicate and error was calculated from the standard deviation between values. […]

MV4–11 AML cells = assay: Cell proliferation (CellTiter-Glo, 48 h), MV4-11; type: cell-based; details: Homo sapiens; MV4–11, 48 hours
Text: (§1) Stable BaF3 populations expressing activated FLT3 were generated by retroviral spinfection with the appropriate mutated plasmid followed by selection and growth factor withdrawal as previously described. The BaF3 cell line was originally obtained from the laboratory of Charles Sawyers and has not been authenticated. MV411 and Molm14 cells were obtained from the laboratory of Scott Kogan and authenticated by Promega STR analysis in June 2013. All cell lines were mycoplasma-free. Cells were incubated with compounds for 48 hours and proliferation was assessed using CellTiter-Glo (Promega; Madison, WI) according to the manufacturer’s recommendation on a SpectraMax M3 microplate reader using SpectraMax Software (Molecular Devices; Sunnyvale, CA). All cell viability data shown is reflective of experiments performed a minimum of three times. […]
S13. Cell Cultures: Stable BaF3 populations expressing activated FLT3 were generated by retroviral spinfection with the appropriate mutated plasmid followed by selection and growth factor withdrawal as previously described .4 The BaF3 cell line was originally obtained from the laboratory of Charles Sawyers and has not been authenticated. MV411 and Molm14 cells were obtained from the laboratory of Scott Kogan and authenticated by Promega STR analysis in June
2013. All cell lines were mycoplasma -free. Cells were incubated with compounds for 48 hours and proliferation was assessed using CellTiter -Glo (Promega; Madison, WI) according to the manufacturer’s recommendation on a SpectraMax M3 microplate reader using SpectraMax Software (Molecular Devices; Sunnyvale, CA). All cell viability data shown is reflective of experiments performed a minimum of three times.

FLT3-driven cell lines = assay: Cell-based studies, FLT3-driven cell lines overall; details: result in words
Text: as §1
S13. […]
2013. […] Cells were incubated with compounds for 48 hours and proliferation was assessed using CellTiter -Glo (Promega; Madison, WI) according to the manufacturer’s recommendation on a SpectraMax M3 microplate reader using SpectraMax Software (Molecular Devices; Sunnyvale, CA). […]

IC50 (FLT3 kinase; in vitro kinase assay, 60 min pre-incubation, ATP 190 µM, three independent experiments, read-out: FLT3 IC50 (nM) ± SD): 377 ± 20 nM
LE (FLT3 kinase; ligand efficiency for FLT3 inhibition): 0.24
GI50 (MV4–11 AML cells): 2250 nM
SMILES: Cn1nc(C(C)(C)C)cc1NC(=O)Cc1ccc(Nc2cc(NCCCN3CCCC3)ncn2)cc1 [13d, 2-(4-(6-(3-(Pyrrolidin-1-yl)propylamino)pyrimidin-4-ylamino)phenyl)-N-(3-tert-butyl-1-methyl-1H-pyrazol-5-yl)acetamide]
inhibition of FLT3-driven cellular growth (FLT3-driven cell lines): failed to effectively inhibit FLT3-driven cellular growth

From PMC5829162, “Rational Design, Synthesis and Biological Evaluation of Pyrimidine-4,6-diamine derivatives as Type-II inhibitors of FLT3 Selective Against c-KIT” (Scientific Reports, 2018)
